Experimental data: PMC6651024, “LIR Motif-Containing Hyperdisulfide β-Ginkgotide is Cytoprotective, Adaptogenic, and Scaffold-Ready” (Molecules, 2019)
“Also recorded” adds a separate entry of the source. Where two headings read alike, the source gives them in different places. Where a SMILES comes first, the peptide text is derived from it.

Assays:
caspase-3 = assay: Western blot of caspase-3 in SH-SY5Y cells; type: cell-based, human; conditions: triplicates
Procedure: (§1) In contrast, the β-gB1-treated cells increased the expression of the LC3B-II isoform by 2.8-fold. […] In addition, the β-gB1-treated cells increased the BECN1 expression by 1.5-fold (Figure 2A,B).
(§2) Rat cardio-myoblast cells (H9c2) and […] neuron-like SH-SY5Y cells were purchased from ATCC and maintained in DMEM (Dulbecco’s modified eagle medium) medium supplemented with 10% fetal bovine serum (FBS), 10,000 U/mL of penicillin, and 10,000 µg/mL of streptomycin at 37 °C, 5% CO2.
(§3) A 25 µg equivalent quantity of each protein samples were resolved on a 10% and 15% SDS-PAGE gel accordingly and transferred onto a nitrocellulose membrane. Immunoblotting was performed using anti-protein antibodies against glyceraldehyde 3-phosphate dehydrogenase (GAPDH) (1:5000), LC3B (1:1500), Beclin-1 (1:1500), Caspase-3 (1:1500), and Caspase-9 (1:1500). Blots were developed with Clarity Max Western ECL blotting substrates. Protein bands were quantitated densitometrically using ImageJ software (ImageJ15.0b, Wayen Rasband, NIH, Bethesda, Maryland, USA), expressed relative to GAPDH, and normalized to the vehicle control cells. Statistical calculations and bar graphs were done using GraphPad Prism software (Version 6.01), and three individual experimental data sets were used for the calculation. Data are presented as means ± SD and compared by the Holm–Sidak multiple t-tests method. […]

caspase-9 = assay: Western blot of caspase-9 in SH-SY5Y cells; type: cell-based, human; conditions: triplicates
Procedure: as §1, §2, §3

Beclin-1 (BECN1) = assay: Western blot of autophagy marker Beclin-1 in SH-SY5Y cells; type: cell-based, human; conditions: western blot densitometry relative to GAPDH, normalized to vehicle control, mean, triplicates
Procedure: The LIR-containing proteins regulate autophagosome formation by interacting with the protein Atg8 (autophagy-related gene, Atg) family through their LIR sequences. […] The SH-SY5Y cells were cultured with or without β-gB1. The autophagy markers, Beclin-1 (BECN1), LC3B-I, and LC3B-II, were identified and quantified by western blot analysis. Beclin-1 plays an important role in regulating both autophagy and cell death, whereas LC3B is an important component of the autophagy pathway and the most widely used marker for autophagosomes. Two of the processed LC3B protein are LC3B-I and LC3B-II. LC3B-I is a truncated LC3B. In contrast, LC3B-II is a truncated and lipidated version of LC3B-I [28, 29]. Importantly, LC3B-II is centrally involved in the events of autophagosome membrane expansion and fusion. […]
A 25 µg equivalent quantity of each protein samples were resolved on a 10% and 15% SDS-PAGE gel accordingly and transferred onto a nitrocellulose membrane. […] Protein bands were quantitated densitometrically using ImageJ software (ImageJ15.0b, Wayen Rasband, NIH, Bethesda, Maryland, USA), expressed relative to GAPDH, and normalized to the vehicle control cells. […]

H9c2 cells [1] = type: cell-based, rat; conditions: 48 h hypoxia, MTT
Procedure: (§4) Autophagy is an integrated stress response that clears the subcellular damages. Previous studies have shown that such damages can be induced by hypoxia and hypoxia-reoxygenation stress. Clearing subcellular damages would increase survivability. In traditional medicine, G. biloba is used as an herbal remedy for acute ischemic stroke and post-stroke recovery. To examine the effects of β-gB1 in hypoxia stress, we used cardio-myoblast H9c2 and SH-SY5Y cells. Cells were cultured with or without β-gB1 and incubated in a hypoxic environment for 48 h before the assessment of cell survival by the MTT assay. […] Importantly, when the concentration of β-gB1 was reduced tenfold from 10 to 1 µM, a 22–24% increase of survivability was still observed in H9c2 and SH-SY5Y cells (Figure 3A–D). […]
(§5) Cells were cultured in DMEM with or without β-gB1/S-alkylated β-gB1 (β-gB1Alk) for 48 h under normoxia, hypoxia, and hypoxia-reoxygenation conditions. […] The culture medium was then aspirated, and purple formazan crystals were dissolved in DMSO for colorimetric quantification at 570 nm using a microplate reader with a reference wavelength of 630 nm. […]

SH-SY5Y cells = type: cell-based, mouse; conditions: 48 h hypoxia, MTT
Procedure: as §4, §5

H9c2 cells [2] = assay: Hypoxia-reoxygenation injury, MTT assay, H9c2; type: cell-based, rat; conditions: H9c2, 1 µM peptide, 24 h hypoxia then 24 h normoxia, triplicates
Procedure: Cells were cultured with or without β-gB1 and its S-alkylated β-gB1, first under the hypoxic condition for 24 h and then at a normal oxygen environment for another 24 h. The cell viability under hypoxia-reoxygenation condition was assessed by the MTT assay.
as §2
Cells were seeded in a cell culture medium with/without β-gB1 and incubated at 37 °C, 5% CO2 overnight. The next day, the cells were locked inside a BD GasPak EZ anaerobe pouch system (BD Diagnostics, MD) and incubated at 37 °C for the next 48 h for the hypoxia condition. In addition, the cells were cultured under a normal oxygenated environment for the normoxic control. In hypoxia-reoxygenation experiments, the cells were incubated for 24 h in hypoxic conditions before being incubated for another 24 h under normoxia.
Phosphate-buffered saline (PBS) was used as a vehicle control.

LC3B = assay: Western blot of autophagy marker LC3B (LC3B-I, LC3B-II) in SH-SY5Y cells; type: cell-based, human; conditions: triplicates
Procedure: The LIR-containing proteins regulate autophagosome formation by interacting with the protein Atg8 (autophagy-related gene, Atg) family through their LIR sequences. […] The SH-SY5Y cells were cultured with or without β-gB1. The autophagy markers, Beclin-1 (BECN1), LC3B-I, and LC3B-II, were identified and quantified by western blot analysis. Beclin-1 plays an important role in regulating both autophagy and cell death, whereas LC3B is an important component of the autophagy pathway and the most widely used marker for autophagosomes. Two of the processed LC3B protein are LC3B-I and LC3B-II. LC3B-I is a truncated LC3B. In contrast, LC3B-II is a truncated and lipidated version of LC3B-I [28, 29]. Importantly, LC3B-II is centrally involved in the events of autophagosome membrane expansion and fusion.
as §2
A 25 µg equivalent quantity of each protein samples were resolved on a 10% and 15% SDS-PAGE gel accordingly and transferred onto a nitrocellulose membrane. Immunoblotting was performed using anti-protein antibodies against glyceraldehyde 3-phosphate dehydrogenase (GAPDH) (1:5000), LC3B (1:1500), Beclin-1 (1:1500), Caspase-3 (1:1500), and Caspase-9 (1:1500). Blots were developed with Clarity Max Western ECL blotting substrates. Protein bands were quantitated densitometrically using ImageJ software (ImageJ15.0b, Wayen Rasband, NIH, Bethesda, Maryland, USA), expressed relative to GAPDH, and normalized to the vehicle control cells. Statistical calculations and bar graphs were done using GraphPad Prism software (Version 6.01), and three individual experimental data sets were used for the calculation. Data are presented as means ± SD and compared by the Holm–Sidak multiple t-tests method. P-values pf less than 0.05 were considered significant.

H9c2 cells [3] = assay: MTT-based cell proliferation assay under normoxia, H9c2; parameters: species or system rat; conditions: H9c2, 10 µM peptide, 48 h, triplicates
Text: In addition, β-gB1 is non-toxic to Vero and BHK (baby hamster kidney) cell lines based on an MTT assay. […] LDH is a cytoplasmic enzyme which is rapidly released into the cell culture medium upon plasma membrane damage and is widely used as a marker for cytotoxicity. Thus, an LDH-release assay measures the level of plasma membrane damage to a cell population.
as §2
Cells were cultured in DMEM with or without β-gB1/S-alkylated β-gB1 (β-gB1Alk) for 48 h under normoxia, hypoxia, and hypoxia-reoxygenation conditions. Phosphate-buffered saline (PBS) was used as a vehicle control. After 48 h, MTT (3-(4,5-dimethylthiazol-2-yl)-2,5-diphenyltetrazolium bromide) reagent was added with a final concentration of 0.5 mg/mL, and it was incubated at 37 °C for 2 h. The culture medium was then aspirated, and purple formazan crystals were dissolved in DMSO for colorimetric quantification at 570 nm using a microplate reader with a reference wavelength of 630 nm. […]

CC[C@H](C)[C@@H]1NC(=O)[C@@H]2CSSC[C@H](NC(=O)CNC(=O)[C@@H](NC(=O)[C@H](CCC(=O)O)NC(=O)[C@@H](N)Cc3ccc(O)cc3)[C@@H](C)O)C(=O)N[C@@H](CCCCN)C(=O)N[C@@H](CCCNC(=N)N)C(=O)N[C@H]3CSSC[C@@H](C(=O)O)NC(=O)[C@H](CSSC[C@H](NC3=O)C(=O)N[C@@H](Cc3ccc(O)cc3)C(=O)N[C@@H](CC(C)C)C(=O)N[C@@H](CC(=O)O)C(=O)N[C@@H](CCC(=O)O)C(=O)N[C@@H](Cc3ccc(O)cc3)C(=O)NCC(=O)N2)NC(=O)[C@H](CCCNC(=N)N)NC1=O [β-gB1] (HELM PEPTIDE1{Y.E.T.G.C.K.R.C.C.Y.L.D.E.Y.G.C.I.R.C.C}$PEPTIDE1,PEPTIDE1,5:R3-16:R3|PEPTIDE1,PEPTIDE1,8:R3-20:R3|PEPTIDE1,PEPTIDE1,9:R3-19:R3$$$V2.0; N-terminus and C-terminus assumed)
Expression of caspase-3 in treated cells (caspase-3): remained unchanged
Expression of caspase-9 in treated cells (caspase-9): remained unchanged
Increase of BECN1 expression vs control (Beclin-1 (BECN1)): 1.5 fold
Increase of cell survivability under hypoxia (H9c2 cells [1]; H9c2, 1 µM peptide, range printed jointly for H9c2 and SH-SY5Y): 22–24%
Increase of cell survivability under hypoxia (H9c2 cells [1]; H9c2, 10 µM peptide, triplicates): 37%
Increase of cell survivability under hypoxia (SH-SY5Y cells; 1 µM peptide, range printed jointly for H9c2 and SH-SY5Y): 22–24%
Cytoprotective effect under hypoxia (in words) (SH-SY5Y cells; 10 µM peptide, compared with 37% in H9c2): comparable cytoprotective effect
Increase of cell survivability under hypoxia-reoxygenation (H9c2 cells [2]): 24%
Increase of LC3B-II/LC3B-I ratio compared to control (LC3B; western blot band intensity): about 3 fold
Increase of expression of LC3B-II isoform vs control (LC3B; western blot densitometry relative to GAPDH, normalized to vehicle control, mean): 2.8 fold
Expression of LC3B-I isoform vs control (LC3B; western blot densitometry relative to GAPDH, normalized to vehicle control): did not alter the expression
Cell viability (growth or death) under normoxia (H9c2 cells [3]): No change in cell viability; also recorded: no significant effect on the growth or death
